From patent publication US8940739B2, “Compound of a reverse-turn mimetic and a production method and use therefor” (JW Pharmaceutical Corporation, priority 2010, dated 2015)

Key:
[1] = tested on: MV-4-11 (human, Acute Myeloid Leukemia cell line) cells; experiment: Cell growth inhibition assay, GI50 of MV-4-11; type: cell-based; conditions: Homo sapiens, MV4-11, 72 h, MV-4-11 cells
Summary of the method: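 GI50 derived from 490 nm absorbance using CellTiter 96 Aqueous One reagent, with compound-free medium providing the background. Human AML MV-4-11 cells, seeded at 5×10^4 per well in IMDM/10% FBS, incubated 72 h at 37 °C with duplicate serial dilutions of test compound.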

[2] = biological target: cDNA-expressed human hepatic CYP3A4 (Homo sapiens (Human), UniProt P08684); experiment: Measurement of CYP (IC50 of P450 CYP3A4), BFC substrate; type: in vitro ADME; conditions: 20 minutes
Summary of the method: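 cDNA-expressed human CYP3A4 supersomes in 0.1M potassium phosphate pH 7.4 with 8.3 mM MgCl2, 1.67 mM EDTA and 0.25 mM NADPH; compounds in acetonitrile (<1% final). Reaction started with 30 µM BFC, 20 min at 37. 7-Hydroxy-4-trifluoromethyl-coumarin read by fluorescence (ex 409/em 530 nm).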

Sequence of cDNA-expressed human hepatic CYP3A4 (P08684 whole entry): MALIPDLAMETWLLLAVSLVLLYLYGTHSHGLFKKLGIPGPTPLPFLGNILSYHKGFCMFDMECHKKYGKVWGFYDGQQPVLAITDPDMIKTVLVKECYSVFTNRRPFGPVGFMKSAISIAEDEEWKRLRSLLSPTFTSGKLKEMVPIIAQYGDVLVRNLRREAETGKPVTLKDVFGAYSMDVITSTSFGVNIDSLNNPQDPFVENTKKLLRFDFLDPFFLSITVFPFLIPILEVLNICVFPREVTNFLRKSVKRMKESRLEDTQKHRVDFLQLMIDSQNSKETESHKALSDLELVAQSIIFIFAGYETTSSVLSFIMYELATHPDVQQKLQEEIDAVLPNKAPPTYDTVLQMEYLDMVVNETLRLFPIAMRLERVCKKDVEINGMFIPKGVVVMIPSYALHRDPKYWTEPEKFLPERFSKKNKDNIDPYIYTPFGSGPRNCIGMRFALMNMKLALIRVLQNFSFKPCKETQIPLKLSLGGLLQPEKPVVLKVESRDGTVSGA

SMILES | GI50 [1] [nM] | IC50 [2] [nM]
C=CCN1CC(=O)N2[C@@H](Cc3ccc(O)cc3)C(=O)N(Cc3cccc4c(-c5ccc(C(=O)N6CCSCC6)cc5)cn(C)c34)C[C@@H]2N1C(=O)NCc1ccccc1 [Compound D-5] | 2.2 | 1760
C=CCN1CC(=O)N2[C@@H](Cc3ccc(O)cc3)C(=O)N(Cc3cccc4c(-c5ccc(C(=O)Nc6cccc(O)c6)cc5)cn(C)c34)C[C@@H]2N1C(=O)NCc1ccccc1 [Compound D-16] | 15.6 | 8070
C=CCN1CC(=O)N2[C@@H](Cc3ccc(O)cc3)C(=O)N(Cc3cccc4c(-c5ccc(C(=O)NN6CCN(c7ccccn7)CC6)cc5)cn(C)c34)C[C@@H]2N1C(=O)NCc1ccccc1 [Compound D-44] | 19.5 | > 25000
C=CCN1CC(=O)N2[C@@H](Cc3ccc(O)cc3)C(=O)N(Cc3cccc4c(-c5ccc(NC(=O)N6CCOCC6)nc5)cn(C)c34)C[C@@H]2N1C(=O)NCc1ccccc1 [Compound D-88] | 1.2 | 10200
C=CCN1CC(=O)N2[C@@H](Cc3ccc(O)cc3)C(=O)N(Cc3cccc4c(-c5ccc(NC(=O)N6CCN(S(C)(=O)=O)CC6)nc5)cn(C)c34)C[C@@H]2N1C(=O)NCc1ccccc1 [Compound D-97] | 2.2 | 6400
C=CCN1CC(=O)N2[C@@H](Cc3ccc(O)cc3)C(=O)N(Cc3cccc4c(-c5ccc(NC(=O)Nc6cnccn6)cc5)cn(C)c34)C[C@@H]2N1C(=O)NCc1ccccc1 [Compound D-83] | 13.8 | 4610
C=CCN1CC(=O)N2[C@@H](Cc3ccc(O)cc3)C(=O)N(Cc3cccc4c(-c5ccc(C(=O)Nc6ccc(N)cc6)cc5)cn(C)c34)C[C@@H]2N1C(=O)NCc1ccccc1 [Compound D-18] | 1.2 | 2420
C=CCN1CC(=O)N2[C@@H](Cc3ccc(O)cc3)C(=O)N(Cc3cccc4c(-c5ccc(C(=O)N6CCN(S(C)(=O)=O)CC6)nc5)cn(C)c34)C[C@@H]2N1C(=O)NCc1ccccc1 [Compound D-90] | 4.6 | 6960
C=CCN1CC(=O)N2[C@@H](Cc3ccc(O)cc3)C(=O)N(Cc3cccc4c(-c5ccc(NC(=O)c6ccc(OC)cc6)cc5)cn(C)c34)C[C@@H]2N1C(=O)NCc1ccccc1 [Compound D-49] | 10 | > 25000
C=CCN1CC(=O)N2[C@@H](Cc3ccc(O)cc3)C(=O)N(Cc3cccc4c(-c5ccc(C(=O)Nc6ccc(OC)cc6)cc5)cn(C)c34)C[C@@H]2N1C(=O)NCc1ccccc1 [Compound D-22] | 4.2 | 19500
C=CCN1CC(=O)N2[C@@H](Cc3ccc(O)cc3)C(=O)N(Cc3cccc4c(-c5ccc(C(=O)N(C)C)o5)cn(C)c34)C[C@@H]2N1C(=O)NCc1ccccc1 [Compound D-102] | 1.6 | 3420
C=CCN1CC(=O)N2[C@@H](Cc3ccc(O)cc3)C(=O)N(Cc3cccc4c(-c5ccc(C(=O)N6CCN(C)CC6)nc5)cn(C)c34)C[C@@H]2N1C(=O)NCc1ccccc1 [Compound D-91] | 1.3 | 6510

Continued, values first:

GI50 [1] [nM] | IC50 [2] [nM] | SMILES
5.7 | 2610 | C=CCN1CC(=O)N2[C@@H](Cc3ccc(O)cc3)C(=O)N(Cc3cccc4c(C(=O)Nc5ccc(OC)cc5)cn(C)c34)C[C@@H]2N1C(=O)NCc1ccccc1 [Compound G-3]
7.6 | 2510 | C=CCN1CC(=O)N2[C@@H](Cc3ccc(O)cc3)C(=O)N(Cc3cccc4c(C(=O)N(C)CCO)cn(C)c34)C[C@@H]2N1C(=O)NCc1ccccc1 [Compound F-3]
2.3 | 3670 | C=CCN1CC(=O)N2[C@@H](Cc3ccc(O)cc3)C(=O)N(Cc3cccc4c(C(=O)Nc5cnc(N6CCN(C(C)C)CC6)nc5)cn(C)c34)C[C@@H]2N1C(=O)NCc1ccccc1 [Compound G-47]
15 | 3850 | C=CCN1CC(=O)N2[C@@H](Cc3ccc(O)cc3)C(=O)N(Cc3cccc4c(-c5ccc(C(=O)OC)cc5)cn(C)c34)C[C@@H]2N1C(=O)NCc1ccccc1 [Compound H-1]
16 | 3680 | C=CCN1CC(=O)N2[C@@H](Cc3ccc(O)cc3)C(=O)N(Cc3cccc4c(C(=O)N(C)CCCO)cn(C)c34)C[C@@H]2N1C(=O)NCc1ccccc1 [Compound F-5]
13.5 | 2200 | C=CCN1CC(=O)N2[C@@H](Cc3ccc(O)cc3)C(=O)N(Cc3cccc4c(C(=O)N5CCN6CCN(C(=O)OC(C)(C)C)CC6C5)cn(C)c34)C[C@@H]2N1C(=O)NCc1ccccc1 (some centres unmarked) [Compound E-47]
1.4 | 3290 | C=CCN1CC(=O)N2[C@@H](Cc3ccc(O)cc3)C(=O)N(Cc3cccc4c(C(=O)Nc5ccc(N6CCC(N7CCC7)CC6)nc5)cn(C)c34)C[C@@H]2N1C(=O)NCc1ccccc1 [Compound G-54]
2.4 | 17200 | C=CCN1CC(=O)N2[C@@H](Cc3ccc(O)cc3)C(=O)N(Cc3cccc4c(C(=O)Nc5ccc(N6CCN(C7CCCC7)CC6)nc5)cn(C)c34)C[C@@H]2N1C(=O)NCc1ccccc1 [Compound G-50]
15.4 | 2530 | C=CCN1CC(=O)N2[C@@H](Cc3ccc(O)cc3)C(=O)N(Cc3cccc4c(C(=O)N(C)CC5(CO)CC5)cn(C)c34)C[C@@H]2N1C(=O)NCc1ccccc1 [Compound F-9]
1.5 | 6410 | C=CCN1CC(=O)N2[C@@H](Cc3ccc(O)cc3)C(=O)N(Cc3cccc4c(-c5cnc(N(C)C)nc5)cn(C)c34)C[C@@H]2N1C(=O)NCc1ccccc1 [Compound H-7]
1.3 | 6950 | C=CCN1CC(=O)N2C(Cc3ccc(O)cc3)C(=O)N(Cc3cccc4c(C(=O)Nc5ccc(N6CCC(O)CC6)nc5)cn(C)c34)CC2N1C(=O)NCc1ccccc1 (centres unmarked) [Compound G-37]
1.7 | 7400 | C=CCN1CC(=O)N2C(CN(Cc3cccc4c(C(=O)Nc5ccc(CCO)cc5)cn(C)c34)C(=O)[C@@H]2Cc2ccc(O)cc2)N1C(=O)NCc1ccccc1 (some centres unmarked) [Compound G-10]
1.3 | 6940 | C=CCN1CC(=O)N2C(Cc3ccc(O)cc3)C(=O)N(Cc3cccc4c(C(=O)Nc5ccc(N6CCN(CCC)CC6)nc5)cn(C)c34)CC2N1C(=O)NCc1ccccc1 (centres unmarked) [Compound G-43]
9.7 | 2090 | C=CCN1CC(=O)N2[C@@H](Cc3ccc(O)cc3)C(=O)N(Cc3cccc4c(-c5cnc6ccccc6c5)cn(C)c34)C[C@@H]2N1C(=O)NCc1ccccc1 [Compound H-6]
1.2 | 6750 | C=CCN1CC(=O)N2[C@@H](Cc3ccc(O)cc3)C(=O)N(Cc3cccc4c(C(=O)Nc5ccc(N(C)C)nc5)cn(C)c34)C[C@@H]2N1C(=O)NCc1ccccc1 [Compound G-15]
9.2 | 3300 | C=CCN1CC(=O)N2[C@@H](Cc3ccc(O)cc3)C(=O)N(Cc3cccc4c(C(=O)N5CCC(OC)CC5)cn(C)c34)C[C@@H]2N1C(=O)NCc1ccccc1 [Compound E-52]
14 | 19100 | C=CCN1CC(=O)N2[C@@H](Cc3ccc(O)cc3)C(=O)N(Cc3cccc4c(C(=O)Nc5ccc(OC(C)(C)C)cc5)cn(C)c34)C[C@@H]2N1C(=O)NCc1ccccc1 [Compound G-6]
15.1 | 6600 | C=CCN1CC(=O)N2[C@@H](Cc3ccc(O)cc3)C(=O)N(Cc3cccc4c(C(=O)N5CCN6CCCC6C5)cn(C)c34)C[C@@H]2N1C(=O)NCc1ccccc1 (some centres unmarked) [Compound E-43]
1.7 | 2630 | C=CCN1CC(=O)N2C(CN(Cc3cccc4c(C(=O)Nc5ccc6c(c5)OCCO6)cn(C)c34)C(=O)[C@@H]2Cc2ccc(O)cc2)N1C(=O)NCc1ccccc1 (some centres unmarked) [Compound G-70]
13 | 2110 | C=CCN1CC(=O)N2[C@@H](Cc3ccc(O)cc3)C(=O)N(Cc3cccc4c(C(=O)N5CCC(N6CCOCC6)CC5)cn(C)c34)C[C@@H]2N1C(=O)NCc1ccccc1 [Compound E-65]
2.7 | 7670 | C=CCN1CC(=O)N2[C@@H](Cc3ccc(O)cc3)C(=O)N(Cc3cccc4c(C(=O)Nc5ccc(OCCCN6CCCCC6)nc5)cn(C)c34)C[C@@H]2N1C(=O)NCc1ccccc1 [Compound G-31]
1.5 | 3450 | C=CCN1CC(=O)N2[C@@H](Cc3ccc(O)cc3)C(=O)N(Cc3cccc4c(C(=O)Nc5ccc(N(C)CCO)nc5)cn(C)c34)C[C@@H]2N1C(=O)NCc1ccccc1 [Compound G-18]
8.8 | 2160 | C=CCN1CC(=O)N2C(CN(Cc3cccc4c(C(=O)Nc5ccc(OC)nc5)cn(C)c34)C(=O)[C@@H]2Cc2ccc(O)cc2)N1C(=O)NCc1ccccc1 (some centres unmarked) [Compound G-5]
11.9 | 2570 | C=CCN1CC(=O)N2C(Cc3ccc(O)cc3)C(=O)N(Cc3cccc4c(C(=O)Nc5ccc(NCCCN6CCCC6)nc5)cn(C)c34)CC2N1C(=O)NCc1ccccc1 (centres unmarked) [Compound G-32]
1.3 | 3970 | C=CCN1CC(=O)N2C(Cc3ccc(O)cc3)C(=O)N(Cc3cccc4c(C(=O)Nc5ccc(N6CCC(N7CCCC7)CC6)nc5)cn(C)c34)CC2N1C(=O)NCc1ccccc1 (centres unmarked) [Compound G-51]
8.5 | 4870 | C=CCN1CC(=O)N2[C@@H](Cc3ccc(O)cc3)C(=O)N(Cc3cccc4c(C(=O)Nc5ccc(N6CC(O)C6)nc5)cn(C)c34)C[C@@H]2N1C(=O)NCc1ccccc1 [Compound G-61]
20.4 | 6090 | C=CCN1CC(=O)N2[C@@H](Cc3ccc(O)cc3)C(=O)N(Cc3cccc4c(C(=O)N5CCN(CCN6CCOCC6)CC5)cn(C)c34)C[C@@H]2N1C(=O)NCc1ccccc1 [Compound E-25]
9 | 13000 | C=CCN1CC(=O)N2[C@@H](Cc3ccc(O)cc3)C(=O)N(Cc3cccc4c(C(=O)Nc5ccc(OCCCN(C)C)nc5)cn(C)c34)C[C@@H]2N1C(=O)NCc1ccccc1 [Compound G-13]
